Key:
SHP-2 enzyme = biological target: T1, SHP-2 enzyme (Homo sapiens, UniProt Q06124); test: Phosphatase activity assay (Homogeneous Full Length SHP-2 Assay Kit, DiFMUP substrate); assay type: biochemical; details: full length SHP-2 activated with 0.5 μM SHP-2 activating Peptide; 1 hour co-incubation; DiFMUP 50 μM, 30 min
T1 construct: Homogeneous Full Length SHP-2 Assay Kit (BPS Bioscience #79330); purchased BPS Bioscience 79330
T1 sequence (Q06124 1-593): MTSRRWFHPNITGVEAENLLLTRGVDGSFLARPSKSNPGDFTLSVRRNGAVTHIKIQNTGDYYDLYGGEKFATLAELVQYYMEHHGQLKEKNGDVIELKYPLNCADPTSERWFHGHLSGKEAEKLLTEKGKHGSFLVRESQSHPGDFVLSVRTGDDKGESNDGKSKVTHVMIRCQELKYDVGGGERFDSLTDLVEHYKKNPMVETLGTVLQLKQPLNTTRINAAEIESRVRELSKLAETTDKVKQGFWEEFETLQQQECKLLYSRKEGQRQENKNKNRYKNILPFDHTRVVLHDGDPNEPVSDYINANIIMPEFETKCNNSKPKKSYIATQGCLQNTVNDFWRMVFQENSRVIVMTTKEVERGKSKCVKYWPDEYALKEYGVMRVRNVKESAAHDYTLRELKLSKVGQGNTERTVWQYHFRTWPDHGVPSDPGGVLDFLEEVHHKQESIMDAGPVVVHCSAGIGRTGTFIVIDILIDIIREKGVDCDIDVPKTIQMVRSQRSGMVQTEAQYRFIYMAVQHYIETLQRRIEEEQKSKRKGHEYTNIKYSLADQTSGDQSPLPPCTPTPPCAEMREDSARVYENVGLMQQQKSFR
Description: IC50 values were assayed using Homogeneous Full Length SHP-2 Assay Kit (BPS Bioscience #79330), which uses 6,8-difluoro-4-methylumbelliferone phosphate (DiFMUP) as the reaction substrate. SHP2 enzyme solution (diluted to 0.04 ng/μL with 1*buffer) was mixed with 0.5 μM SHP-2 activating Peptide in a 1*buffer solution containing 2.5 mM DTT to activate PTP. At the same time, DMSO (0.1% (V/V)) or the compounds (concentration: 0.5 nM to 1 μM) were added, mixed and co-incubated for 1 hour. DiFMUP (50 μM, total reaction system volume of 20 μL) was added, and the reaction was started. After 30 min of incubation, the fluorescence intensity of the reaction system (excitation wavelength: 350 nm, emission wavelength: 460 nm) was measured by Tecan Infinite M1000.

MV-4-11 cell = test: Cell proliferation assay (Cell Titer-Glo); assay type: cell-based; details: inhibition of MV-4-11 cell proliferation, Cell Titer-Glo on day 4
Description: MV 411 cells (20000 cells/well) were inoculated and cultured in 96 (Corning #3916) well plates, and the medium was 80 μL/well (IMDM with 10% fetal bovine serum (FBS), Gibco #10099-141C). After 24 hours of incubation, 20 μL of the compounds of the present invention configured to different concentrations (DMSO final concentration of 0.1% (V/V)) were added. On day 4, 60 μL of Cell Titer-Glo (Promega #G7558) was added to each well and mixed at 80 rpm, 25° C., 15 min, and the fluorescence values were detected by Victor X5 (PE).

IC50 (SHP-2 enzyme)	IC50 (MV-4-11 cell; Homo sapiens, MV4-11, 96 h)	IC50 (MV-4-11 cell)	SMILES
8 nM	206 nM		CC1(C)CN(C(=O)c2ncc(N3CCC4(CC3)Cc3ccccc3C4N)nc2N)Cc2scnc21 (stereo not shown) [Compound 54]
15 nM	164 nM		Nc1ccc2c(n1)CCN2C(=O)c1nc(C2CC2)c(N2CCC3(CC2)Cc2ccccc2C3N)nc1N (stereo not shown) [Compound 106]
7 nM	110 nM		CC1(C)CN(C(=O)c2ncc(N3CCC4(CC3)Cc3ccc(F)cc3C4N)nc2N)Cc2sc(N)nc21 (stereo not shown) [Compound 94]
9 nM	21 nM		Nc1nc2c(s1)CN(C(=O)c1ncc(N3CCC4(CC3)Cc3ccc(C5CC5)cc3C4N)nc1N)CC2 (stereo not shown) [Compound 110]
29 nM	166 nM		NC1c2ccccc2CC12CCN(c1ncc(C(=O)N3CCc4ncsc4C3)c3nccn13)CC2 (stereo not shown) [Compound 46]
3 nM	61 nM		Nc1ccc2c(n1)CCN2C(=O)c1ncc(N2CCC3(CC2)Cc2ccc(Cl)cc2C3N)nc1N (stereo not shown) [Compound 91]
29 nM	285 nM		Cn1cc(-c2ccc3c(n2)CCCN3C(=O)c2ncc(N3CCC4(CC3)Cc3ccccc3C4N)nc2N)cn1 (stereo not shown) [Compound 33]
11 nM	39 nM		NC(=O)c1nc(C(=O)N2Cc3sc(N)nc3C(F)(F)C2)cnc1N1CCC2(CC1)Cc1ccccc1C2N (stereo not shown) [Compound 117]
8 nM		25 nM	[2H]C1([2H])CN(C(=O)c2ncc(N3CCC4(CC3)Cc3ccc(OC)cc3C4N)nc2N)Cc2sc(N)nc21 (stereo not shown) [Compound 122]
4 nM	127 nM		Nc1nc(N2CCC3(CC2)Cc2ccccc2C3N)cnc1C(=O)N1CCc2nc(F)ccc21 (stereo not shown) [Compound 80]
11 nM	82 nM		Nc1nc(N2CCC3(CC2)Cc2ccccc2C3N)cnc1C(=O)N1CCCc2ncccc21 (stereo not shown) [Compound 13]
5 nM	156 nM		COc1ccc2c(c1)C(N)C1(CCN(c3cnc(C(=O)N4CCc5nc(N)ccc54)c(N)n3)CC1)C2 (stereo not shown) [Compound 62]
4 nM	196 nM		Nc1nc(N2CCC3(CC2)Cc2ccccc2C3N)cnc1C(=O)N1CCc2nc(Cl)ccc21 (stereo not shown) [Compound 52]
4 nM	4 nM		Nc1nc2c(s1)CN(C(=O)c1nc(F)c(N3CCC4(CC3)Cc3ccccc3C4N)nc1N)CC2(F)F (stereo not shown) [Compound 115]
14 nM	18 nM		Cc1nc(N2CCC3(CC2)Cc2ccccc2C3N)c(CO)nc1C(=O)N1Cc2sc(N)nc2C(F)(F)C1 (stereo not shown) [Compound 112]
13 nM	65 nM		CNc1ccc2c(n1)CCN2C(=O)c1nc(C)c(N2CCC3(CC2)Cc2ccccc2C3N)nc1N (stereo not shown) [Compound 103]
6 nM	< 5 nM		Cc1ccc2c(c1)C(N)C1(CCN(c3ncc(C(=O)N4Cc5sc(N)nc5C(F)(F)C4)nc3CO)CC1)C2 (stereo not shown) [Compound 113]
4 nM	127 nM		CC1CN(C(=O)c2ncc(N3CCC4(CC3)Cc3ccccc3C4N)nc2N)c2ccc(N)nc21 (stereo not shown) [Compound 89]
5 nM		9 nM	Nc1nc2c(s1)CN(C(=O)c1ncc(N3CCC4(CC3)Cc3cc(F)ccc3C4N)nc1N)CC2(F)F (stereo not shown) [Compound 129]
3 nM	58 nM		Nc1nc2c(cc1F)N(C(=O)c1ncc(N3CCC4(CC3)Cc3ccccc3C4N)nc1N)CC2 (stereo not shown) [Compound 109]
7 nM	13 nM		Nc1nc2c(s1)CN(C(=O)c1ncc(N3CCC4(CC3)Cc3ccccc3C4N)nc1N)CC2(F)F (stereo not shown) [Compound 127]
5 nM	98 nM		Cc1nc(C(=O)N2CCCn3nccc32)c(N)nc1N1CCC2(CC1)Cc1ccc(F)cc1C2N (stereo not shown) [Compound 27]
59 nM	59 nM		Cn1c(N2CCC3(CC2)Cc2ccccc2C3N)nc(N)c(C(=O)N2CCCn3nccc32)c1=O (stereo not shown) [Compound 40]
9 nM	119 nM		Cc1nc(C(=O)N2CCc3nc(N)ccc32)c(N)nc1N1CCC2(CC1)Cc1ccc(F)cc1C2N (stereo not shown) [Compound 107]
10 nM	46 nM		Cc1cc2c(cc1C)C(N)C1(CCN(c3cnc(C(=O)N4CCc5nc(N)sc5C4)c(N)n3)CC1)C2 (stereo not shown) [Compound 99]

IC50 (SHP-2 enzyme)	IC50 (MV-4-11 cell; Homo sapiens, MV4-11, 96 h)	IC50 (MV-4-11 cell)	SMILES
5 nM	111 nM		Nc1nc(N2CCC3(CC2)Cc2ccc(F)cc2C3N)cnc1C(=O)N1CCCn2nccc21 (stereo not shown) [Compound 8]
1 nM	220 nM		COc1ccc2c(c1)C(N)C1(CCN(c3cnc(C(=O)N4CCCn5nccc54)c(N)n3)CC1)C2 (stereo not shown) [Compound 5]
11 nM	150 nM		Nc1nc(N2CCC3(CC2)Cc2c(F)cccc2C3N)nnc1C(=O)N1CCCn2nccc21 (stereo not shown) [Compound 77]
9 nM	196 nM		Nc1ccc2c(n1)CCN2C(=O)c1ncc(N2CCC3(CC2)Cc2ccc(CO)cc2C3N)nc1N (stereo not shown) [Compound 66]
4 nM	44 nM		Nc1nc(N2CCC3(CC2)Cc2ccccc2C3N)cnc1C(=O)N1CCc2ncsc2C1 (stereo not shown) [Compound 10]
7 nM	176 nM		Nc1nc(N2CCC3(CC2)Cc2ccccc2C3N)nnc1C(=O)N1CCCn2nccc21 (stereo not shown) [Compound 45]
10 nM	58 nM		Cc1ccc2c(c1)C(N)C1(CCN(c3nc(N)c(C(=O)N4CCc5nc(N)ccc54)nc3C)CC1)C2 (stereo not shown) [Compound 104]
10 nM	218 nM		Nc1nc(N2CCC3(CC2)Cc2c(F)cccc2C3N)c(F)nc1C(=O)N1CCCn2nccc21 (stereo not shown) [Compound 78]
4 nM	119 nM		CNc1ccc2c(n1)CCN2C(=O)c1ncc(N2CCC3(CC2)Cc2ccccc2C3N)nc1N (stereo not shown) [Compound 92]
7 nM	5 nM		COc1ccc2c(c1)C(N)C1(CCN(c3ncc(C(=O)N4Cc5sc(N)nc5C(F)(F)C4)nc3CO)CC1)C2 (stereo not shown) [Compound 119]
18 nM	85 nM		Cc1nc(C(=O)N2Cc3sc(N)nc3C(C)(C)C2)c(N)nc1N1CCC2(CC1)Cc1ccccc1C2N (stereo not shown) [Compound 101]
4 nM	128 nM		Nc1nc(N2CCC3(CC2)Cc2cc(F)ccc2C3N)cnc1C(=O)N1CCc2nc(F)ccc21 (stereo not shown) [Compound 81]
4 nM	17 nM		Nc1nc(N2CCC3(CC2)Cc2ccc(F)cc2C3N)cnc1C(=O)N1CCc2ncsc2C1 (stereo not shown) [Compound 17]
4 nM	12 nM		Cc1nc(C(=O)N2CCc3nc(N)sc3C2)c(N)nc1N1CCC2(CC1)Cc1ccccc1C2N (stereo not shown) [Compound 85]
5 nM	142 nM		Nc1nc(N2CCC3(CC2)Cc2ccccc2C3N)cnc1C(=O)N1CCc2scnc2C1 (stereo not shown) [Compound 19]
8 nM	241 nM		Nc1nc(N2CCC3(CC2)Cc2ccccc2C3N)c(F)nc1C(=O)N1CCCn2nccc21 (stereo not shown) [Compound 49]
7 nM	51 nM		Cc1nc(C(=O)N2CCc3nc(N)ccc32)c(N)nc1N1CCC2(CC1)Cc1ccccc1C2N (stereo not shown) [Compound 100]
6 nM	95 nM		Nc1nc(N2CCC3(CC2)Cc2ccccc2C3N)cnc1C(=O)N1CCc2ncccc21 (stereo not shown) [Compound 7]
8 nM	286 nM		Nc1nc(N2CCC3(CC2)Cc2ncsc2C3N)cnc1C(=O)N1CCCn2nccc21 (stereo not shown) [Compound 86]
1 nM	78 nM		Nc1nc(N2CCC3(CC2)Cc2cc(F)ccc2C3N)cnc1C(=O)N1CCCn2nccc21 (stereo not shown) [Compound 4]
14 nM	241 nM		Cn1cnc2c1CCCN2C(=O)c1ncc(N2CCC3(CC2)Cc2ccccc2C3N)nc1N (stereo not shown) [Compound 50]
14 nM	257 nM		Nc1nc(N2CCC3(CC2)Cc2ccncc2C3N)cnc1C(=O)N1CCCn2nccc21 (stereo not shown) [Compound 79]
5 nM	172 nM		Nc1nc(N2CCC3(CC2)Cc2ccccc2C3N)cnc1C(=O)N1CCn2nccc2C1 (stereo not shown) [Compound 37]
4 nM	192 nM		Nc1nc(N2CCC3(CC2)Cc2cc(Cl)ccc2C3N)cnc1C(=O)N1CCc2ncccc21 (stereo not shown) [Compound 53]
4 nM	5 nM		Cc1nc(C(=O)N2Cc3sc(N)nc3C(F)(F)C2)c(N)nc1N1CCC2(CC1)Cc1ccccc1C2N (stereo not shown) [Compound 65]

Reference: patent US20240025924A1, “HETEROCYCLE SUBSTITUTED KETONE DERIVATIVE, AND COMPOSITION AND MEDICINAL USE THEREOF” (SHANGHAI HAIYAN PHARMACEUTICAL TECHNOLOGY CO., LTD., priority 2021, published 2024)
